# Measurements as given in patent US20090155784A1, “ASSESSMENT OF ASTHMA AND ALLERGEN-DEPENDENT GENE EXPRESSION” (Wyeth, priority 2007, published 2009).
# Test system: PBMCs from healthy volunteers
# Experiment: HG-U133A transcriptional profiling of allergen-stimulated PBMCs of healthy volunteers (HV/WHV), with and without cPLA2 inhibitor, 6 days culture
# Format: cell-based, human
# Text: PBMCs were stimulated in vitro with a cocktail containing 4 different allergens from house dust mite, ragweed and cat. Recombinant allergens, Der p1, Der f2, Fel d1 (Indoor Biotech, Charlottesville, Va.) and natural ragweed allergen (Allergy Lab, Seattle, Wash.) were selected and screened for endotoxin contamination (LAL Endotoxin Test, Catalog #HIT302, sensitivity, 0.0001 Eu/ml, Cell Sciences, Canton, Mass.). The sensitivity of the subjects was unknown but the allergens were chosen based on the estimate that 80% of allergic individuals are believed to react to one or more of these allergens. Culture medium contained RPMI-1640 (Sigma) with 10% heat inactivated FCS (Sigma St. Louis, Mo.) and 100 unit/mL Penicillin and […] Streptomycin and 0.292 mg/mL Glutamine (GIBCO RL Invitrogen, Carlsbad, Calif.). The final allergen cocktail concentrations in culture medium were: Der p1 and Der f2 (dust mite), 1 mg/ml; Fel d1 (cat), 1.25 mg/ml; ragweed, 125 mg/ml. The total level of endotoxin contamination in culture medium was 0.057 Eu/ml. The cPLA2 inhibitor 4-{3-[1-benzhydryl-5-chloro-2-(2-{[(2,6-dimethylbenzyl)sulfonyl]amino}ethyl)-1H-indol-3-yl]propyl}benzoic acid was used at a concentration of 0.3 μM/ml. Zileuton, a 5-lipoxygenase inhibitor, was added at a concentration of 5 μM. The inhibitory activity of both the cPLA2 inhibitor and Zileuton samples were verified in a human whole blood assay. After 6 days in culture approximately 200 μL of supernatant was removed using an 8-channel pipettor without disturbing the cell pellet and placed into a collection plate for cytokine ELISA assays. To the remaining cell pellet 100 μL of RLT lysis buffer containing 1% beta-mercaptoethanol was added and snap frozen for RNA purification.
# RNA was purified using QIA shredders and Rneasy mini kits (Qiagen, Valencia, Calif.). PBMC pellets frozen in RLT lysis buffer containing 1% β-mercaptoethanol were thawed and processed for total RNA isolation using the QIA shredder and RNeasy mini kit. A phenol:chloroform extraction was then performed, and the RNA was repurified using the RNeasy mini kit reagents. Eluted RNA was quantified using a Spectramax96 well plate UV reader (Molecular Devices, Sunnyvale, Calif., USA) monitoring A260/280 OD values. The quality of each RNA sample was assessed by capillary electrophoresis alongside an RNA molecular weight ladder on the Agilent 2100 bioanalyzer (Agilent Technologies, Palo Alto, Calif., USA). RNA samples were assigned quality values of intact (distinct 18S and 28S bands); partially degraded (discernible 18S and 28S bands with presence of low molecular weight bands) or completely degraded (no discernible 18S and 28S bands).
# Labeled targets for oligonucleotide arrays were prepared using a modification of the procedure described by Lockhart et al. (Lockhart (1996) Nat. Biotechnol. 14:1675-80). Labeled targets were hybridized to the HG-U133A Affymetrix GeneChip Array as described in the Affymetrix technical manual. Eleven biotinylated control transcripts ranging in abundance from 3 parts per million (ppm) to 100 ppm were spiked into each sample to function as a standard curve (Hill (2001) Genome Biol. 2:RESEARCH0055). GeneChip MAS 5.0 software was used to evaluate the hybridization intensity, compute the signal value for each probe set and make an absent/present call.
# GeneChips were required to pass the pre-set quality control criteria that the RNA quality metric required a 5′:3′ ratio. Two asthma subjects were excluded from the study due to failure to meet the RNA quality metric and 2 GeneChips from the group treated with cPLA2a inhibitor were excluded for the same reason. The signal value for each probe set was converted into a frequency value representative of the number of transcripts present in 10^6 transcripts by reference to the standard curve (Hill (2001) Genome Biol. 2:RESEARCH0055). […]
compound,measurement,setting,value
"Cc1cccc(C)c1CS(=O)(=O)NCCc1c(CCCc2ccc(C(=O)O)cc2)c2cc(Cl)ccc2n1C(c1ccccc1)c1ccccc1 [cPLA2 inhibitor, 4-{3-[1-benzhydryl-5-chloro-2-(2-{[(2,6-dimethylbenzyl)sulfonyl]amino}ethyl)-1H-indol-3-yl]propyl}benzoic acid]",genes down regulated in response to allergen in Network 1 in the healthy population,"allergen + inhibitor, data not shown",brought up to non-allergen-stimulated background levels
same,Fold Change WHV Allergen vs. cPLA2 inhibitor,"gene C10ORF3, probeset 218542_at",−1.335
same,Fold Change WHV Allergen vs. cPLA2 inhibitor,"gene CDC2, probeset 203213_at",−1.258
same,Fold Change WHV Allergen vs. cPLA2 inhibitor,"gene CHIT1, probeset 208168_s_at",2.013
same,Fold Change WHV Allergen vs. cPLA2 inhibitor,"gene DAB2, probeset 201279_s_at",1.413
same,Fold Change WHV Allergen vs. cPLA2 inhibitor,"gene DAB2, probeset 210757_x_at",1.326
same,Fold Change WHV Allergen vs. cPLA2 inhibitor,"gene DUSP4, probeset 204014_at",−1.388
same,Fold Change WHV Allergen vs. cPLA2 inhibitor,"gene DUSP4, probeset 204015_s_at",−1.157
same,Fold Change WHV Allergen vs. cPLA2 inhibitor,"gene FABP3, probeset 205738_s_at",−1.037
same,Fold Change WHV Allergen vs. cPLA2 inhibitor,"gene FLJ23311, probeset 219990_at",1.042
same,Fold Change WHV Allergen vs. cPLA2 inhibitor,"gene GM2A, probeset 33646_g_at",1.344
same,Fold Change WHV Allergen vs. cPLA2 inhibitor,"gene GM2A, probeset 209727_at",1.211
same,Fold Change WHV Allergen vs. cPLA2 inhibitor,"gene HS3ST2, probeset 219697_at",1.288
same,Fold Change WHV Allergen vs. cPLA2 inhibitor,"gene ME1, probeset 204059_s_at",1.518
same,Fold Change WHV Allergen vs. cPLA2 inhibitor,"gene MELK, probeset 204825_at",−1.213
same,Fold Change WHV Allergen vs. cPLA2 inhibitor,"gene OIP5, probeset 213599_at",−1.067
same,Fold Change WHV Allergen vs. cPLA2 inhibitor,"gene PAPSS2, probeset 203060_s_at",1.13
same,Fold Change WHV Allergen vs. cPLA2 inhibitor,"gene PLEKHB2, probeset 201411_s_at",1.277
same,Fold Change WHV Allergen vs. cPLA2 inhibitor,"gene POLG, probeset 213007_at",−1.337
same,Fold Change WHV Allergen vs. cPLA2 inhibitor,"gene RACGAP1, probeset 222077_s_at",−1.108
same,Fold Change WHV Allergen vs. cPLA2 inhibitor,"gene RUVBL1, probeset 201614_s_at",−1.144
same,Fold Change WHV Allergen vs. cPLA2 inhibitor,"gene SLC36A1, probeset 213119_at",1.279
same,Fold Change WHV Allergen vs. cPLA2 inhibitor,"gene SLC38A6, probeset 214830_at",1.206
same,Fold Change WHV Allergen vs. cPLA2 inhibitor,"gene SLC39A14, probeset 212110_at",−1.568
same,Fold Change WHV Allergen vs. cPLA2 inhibitor,"gene SLCO2B1, probeset 203472_s_at",1.211
same,Fold Change WHV Allergen vs. cPLA2 inhibitor,"gene SLCO2B1, probeset 203473_at",1.237
same,Fold Change WHV Allergen vs. cPLA2 inhibitor,"gene SMC2L1, probeset 204240_s_at",−1.27
same,Fold Change WHV Allergen vs. cPLA2 inhibitor,"gene SN, probeset 219519_s_at",1.618
same,Fold Change WHV Allergen vs. cPLA2 inhibitor,"gene TRIP13, probeset 204033_at",−1.317
same,Fold Change WHV Allergen vs. cPLA2 inhibitor,"gene UNK_AI859865, probeset 222036_s_at",−1.29
same,Fold Change WHV Allergen vs. cPLA2 inhibitor,"gene UNK_BE966236, probeset 201890_at",−1.202
